From publication PMC8020795 (Proceedings of the National Academy of Sciences of the …, 2021)
Several values for one entry are separate records, joined by “and”; a condition that tells them apart may be missing. Equal entries are not always repeated.

Tests used:
HCA-1 cells [1] = test: CXCL12-induced HCA-1 chemotaxis (invasion assay); format: cell-based, murine; details: concentration up to 1 µM
Method: [3-(2-Aminomethyl-oxazol-4-yl)-propyl]-[3-(tert-butoxycarbonyl-cyclohexyl-amino)- propyl]-carbamic acid tert-butyl ester (Linker 1). A mixture of L1-6 (10.35 g, 16.5 mmol) and 10% Pd/C (4.66 g) in iso-propanol (310 mL) was stirred under H2(g) at 50 °C for 15 h.
The resulting mixture was filtered, and the filtrate was concentrated to afford Linker 1 (7.23 g, […]
Wound healing and invasion assays
Cell migration ability was measured by wound healing assay. HCA-1 cells (5 × 10^5 cells per well) were seeded onto 12-well plates and incubated overnight. When the cell confluence exceeded 90%, scratch wounds were made by scraping a straight line in the middle of the cell layer using the tip of a 1000 µL pipette. After washing the cells with PBS, the cells were incubated in serum-free medium under different treatment conditions (control, 100 ng/mL CXCL12, and 10 µM BPRCX807 with 100 ng/mL CXCL12). Then, 3-4 fields (40×) of each group were randomly chosen and observed by a microscope (IX83, Olympus, Japan) at time points of 0 h, 24h, 48 h and 72 h. For the invasion assay, HCA-1 cells were suspended in RPMI 1640 containing 0.5% FBS and then preincubated with the indicated concentrations of compounds for 10 min at 37 °C. […] After 17.5 h of incubation at 37 °C, the cells in both chambers of the inserts were measured with a CellTiter-Glo Luminescent Cell Viability Assay (Promega, Wisconsin). […]

HCA-1 cells [2] = test: EMT marker expression under hypoxia (qRT-PCR); format: cell-based, murine; details: hypoxic conditions (1% oxygen)
Method: Signaling, Danvers, MA) or β-actin (Sigma-Aldrich, St. Louis, MO) before incubation with HRP-conjugated secondary antibodies (Antibodies Inc., Davis, CA) for 1 h. Autoradiography was conducted after ECL reagent (Thermo Scientific, Rockford, IL) was added to the […]
Reverse transcription quantitative real time PCR
Total RNA was extracted from HCA-1 cells using the RNeasy Mini Kit (Qiagen, CA, USA). cDNAs were synthesized using the High-Capicity cDNA Reverse Transcription Kit (Applied Biosystems, CA, USA). Primers specific for Slug, Fn1, Cdh2, Vim, Foxc2, Zeb1, Zeb2, Twist1, Cdh1, Mta3, Cldn3, Cldn5, β-actin and GAPDH were used, and relative gene expression was determined using Real-Time SYBR Green PCR Master Mix (Applied Biosystems, CA, USA) on a QPCR System. The comparative threshold cycle method was used to calculate fold change in gene expression, which was normalized to β-actin as a […]

HCA-1 cells [3] = test: Western blot of phospho-ERK and phospho-AKT after CXCL12 stimulation; format: cell-based, murine; details: 20 µM, CXCL12 stimulation
Method: Western blotting was conducted by following standard procedures. HCA-1 or JHH-7 cells (10^5 cells per well) were seeded in 12-well plates (Costar, IL), incubated for 12 h and […]
containing (100 ng/mL) serum-free medium. After 24 h, the cells were lysed in RIPA buffer on ice for 30 min, and samples were collected and loaded with 4× Laemmli Sample buffer (Bio-Rad, Hercules, CA). The samples were separated on a 10% SDS-PAGE gels and transferred to PVDF membranes. After blocking with skim milk for 1 h, the membranes were incubated at 4°C overnight with primary antibodies against p -AKT, AKT, p-ERK, ERK (Cell Signaling, Danvers, MA) or β-actin (Sigma-Aldrich, St. Louis, MO) before incubation with HRP-conjugated secondary antibodies (Antibodies Inc., Davis, CA) for 1 h. […]
Total RNA was extracted from HCA-1 cells using the RNeasy Mini Kit (Qiagen, CA, USA). cDNAs were synthesized using the High-Capicity cDNA Reverse Transcription Kit […]
Biosystems, CA, USA) on a QPCR System. The comparative threshold cycle method was used to calculate fold change in gene expression, which was normalized to β-actin as a […]

DEN/CCl4-induced HCC = test: DEN/CCl4-induced liver fibrosis associated HCC model; format: in vivo, C3H mice
Method: In vivo hepatocellular carcinoma treatment studies […]
mouse PD-1 (200 µg/mouse; BioXcell, BE0146). The therapeutic efficacy and the changes in immune cells were analyzed after two weeks of treatment. The tumor volume was calculated with the following formula: volume = width × length × height/2. The lung metastatic nodules

CXCR4 = CXCR4 (Homo sapiens, UniProt P61073); test: CXCL12-induced chemotaxis inhibition assay in CCRF-CEM cells; format: cell-based; design: host or cells: CCRF-CEM; details: mean ± SD
Method: Figure S1. Binding affinity and chemotaxis inhibition assay of BPRCX807. (a) Binding affinity (IC50) of BPRCX807 was determined by 50% inhibition of radioligand [125I]CXCL12 binding to hCXCR4-transfected HEK293T membrane; (b) CXCL12-induced chemotaxis inhibition assay was performed to measure the inhibitory activity of BPRCX807 using CCRF-CEM cell line. Values represent the mean ± SD of at least three independent […]
Figure S2. CXCR4+CD34+ stem cell mobilization. C57BL/6 male mice were […]
h after dosing, the peripheral blood was harvested for analyzing the number of CXCR4+CD34+ stem cells. The data are the mean values ± SEM (n = 3/group). Statistical

Chain of CXCR4 (P61073 whole entry): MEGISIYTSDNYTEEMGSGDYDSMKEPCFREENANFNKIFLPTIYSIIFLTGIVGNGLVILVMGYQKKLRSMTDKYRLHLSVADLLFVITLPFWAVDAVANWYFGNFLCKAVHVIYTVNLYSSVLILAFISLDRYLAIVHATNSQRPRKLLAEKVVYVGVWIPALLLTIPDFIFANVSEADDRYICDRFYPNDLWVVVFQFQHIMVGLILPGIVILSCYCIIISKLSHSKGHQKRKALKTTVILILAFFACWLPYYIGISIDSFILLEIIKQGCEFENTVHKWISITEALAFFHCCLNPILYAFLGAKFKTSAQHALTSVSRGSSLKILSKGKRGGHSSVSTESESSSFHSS

Cc1cc(NC2CCN(C(=O)CCNCC(=O)O)CC2)nc(NCc2nc(CCCNCCCNC3CCCCC3)co2)n1 [BPRCX807]
CXCL12-induced cell migration (HCA-1 cells [1]): significant decrease | Expression of epithelial markers (E-cadherin, MTA-3, CLDN3, CLDN5) (HCA-1 cells [2]): alleviated a hypoxia-induced decrease in the epithelial markers | Expression of mesenchymal markers (Slug, Fibronectin, N-cadherin, Vimentin, FOXC2, Zeb1, Zeb2) (HCA-1 cells [2]; dose-dependent): restrained the increases in the expression of mesenchymal markers | CXCR4/CXCL12-triggered ERK and Akt activation (HCA-1 cells [3]): suppress CXCR4/CXCL12-triggered ERK and Akt activation more significantly than its counterparts | Tumors in fibrotic liver (DEN/CCl4-induced HCC; combination with anti–PD-1, BPRCX807 15 mg/kg/d SC minipump weeks 25 to 28): remarkably suppressed | Tumor size (DEN/CCl4-induced HCC; combination with sorafenib): significantly reduce tumor size more efficiently than sorafenib alone | EC50 (CXCR4): 0.048 µM and 0.0481 µM
